Assay results published in patent US12655379B2, “Device for evaluation of chemical substance and method for evaluation of chemical substance” (SHINKO CHEMICAL CO., LTD., priority 2017, dated 2026).

Columns and labels:
Caco-2 cells = experiment: Perfusion test of first pass effect, small intestine compartment (Caco-2 single layer film in insert); conditions: 240 μL of 62.5 μg/mL substrate solution in insert, HBSS perfusion, sampled every 30 minutes for 180 minutes, LC-MS-MS, FIG. 19
Method: (§1) In the present example, small intestine epithelial cells and liver cells were disseminated in separate compartments, and a first pass effect of a chemical substance was evaluated by using a device in which the respective compartments were connected via a flow path system. In the device described with reference to FIG. 1, Caco-2 cells were disseminated as model cells of the small intestine epithelial cells, and HepG2-CYP3A4 cells obtained by a genetic manipulation to excessively develop CYP3A4 in HepG2 cells were disseminated as model cells of the liver cells. Thus, the first pass effects (absorption and metabolism) of the chemical substance on two types of cells (the small intestine epithelial cells and the liver cells) were simultaneously evaluated.
(§2) • a) Caco-2 Cell • i) 0.4 mL of cell suspension was added to an inner side (an apical side) of a porous membrane filter at a density of 0.5 to 5×10^5 cells/cm^2 (e.g., 0.6×10^5 cells/cm^2). • ii) 0.8 mL of medium was added to an outer side (a basal side) of the porous membrane filter. • iii) The cells were cultured in a carbon dioxide gas incubator (5% of CO2 at 37° C. under humidification conditions) for about 3 weeks. An apical-side medium and a basal-side medium were appropriately changed.
(§3) Prior to use in a test, an electric resistance of a single layer film was measured by using an electric resistance measuring device.

HepG2-CYP3A4 cells = experiment: Perfusion test of first pass effect, liver compartment (HepG2-CYP3A4 cells downstream of Caco-2 insert); conditions: 240 μL of 62.5 μg/mL substrate solution in insert, HBSS perfusion, sampled every 30 minutes for 180 minutes, LC-MS-MS, FIG. 20
Method: as §1, §2, §3

Structure (SMILES): Cc1ncc2n1-c1ccc(Cl)cc1C(c1ccccc1F)=NC2 [midazolam, Midazolam]
- permeation amount of midazolam permeated through the Caco-2 single layer film (Caco-2 cells): successive increase
- permeation amount of midazolam (HepG2-CYP3A4 cells): successive increase
